Assays:
[1] = system: Botrytis cinerea; assay: Fungal growth inhibition, treated disc on agar (BOT CIN); type: cell-based; conditions: disc dipped in 500 mg/l, 29° C.; for inhibition at 500 µg/mL: Botrytis cinerea, read-out: Percent Growth Inhibition, BOT CIN
Excerpt: (§2) Filter paper discs, each 11 mm. in diameter, were dipped in each of the test solutions. The discs were allowed to air dry to drive off the acetone solvent. A number of untreated discs were used as controls.
(§3) The treated and untreated discs were then placed on agar plates and one of the following fungus species: Septoria nodorum (SEP NOD), Botrytis cinerea (BOT CIN), Fusarium oxysporum (FUS OXY), Pythium ultimum (PYT ULT), Rhizoctonia solani (RHI SOL), Colletotrichum gossypii (COL GOS), and Scierotinia minor (SCL MIN), was added to the center of each disc in the form of a culture plug with the fungus mat in contact with the paper of the test disc. Cercosporidium personatum (CER PER), was added to discs as a spore suspension (20,000 spores/ml) to the disc (two drops of spore suspension per disc), rather than a mycelial culture plug. The plates were then incubated at 29° C. in an oven.
(§4) With the exception of the discs containing Cercosporidium personatum, the discs were evaluated by first measuring the radius from the center of the fungus colony on the treated discs and on the untreated discs. Percent growth inhibition of each of the compounds tested was determined as a function of the difference between the radius of the fungus colony on the treated disc versus the radius of the fungus colony on the untreated disc.

[2] = system: Rhizoctonia solani; assay: Fungal growth inhibition, treated disc on agar (RHI SOL); type: cell-based; conditions: disc dipped in 500 mg/l, 29° C.; for inhibition at 500 µg/mL: Rhizoctonia solani, read-out: Percent Growth Inhibition, RHI SOL
Excerpt: as §2, §3, §4

[3] = system: Helminthosporium sativum; assay: Barley spot blotch, foliar treatment (HEL SAT); type: in vivo; conditions: foliar, 1,000 mg/l; for pest or weed control at 1000 µg/mL: Helminthosporium, foliar, 216 h, read-out: Percent Reduction of Disease, HEL SAT
Summary of the method: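 Percent control of H. sativum blotch was computed after foliar spraying of six-day-old "Robust" barley (10 plants/pot) at 1,000 mg/l versus unsprayed pots. Spore inoculation followed spraying, then 24 h in a 99% humidity chamber and eight days in a 21° C greenhouse.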

[4] = system: Erysiphe graminis; assay: Powdery mildew of barley, systemic root uptake (BMS); type: in vivo; conditions: 45 ml of 250 mg/l, 8 days after inoculation
Summary of the method: (§1)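 Pot soil of barley (BMS) and cucumber (CMS) plants was drenched with 45 ml of a 250 mg/l acetone/Tween 20 aqueous emulsion, with untreated plants as controls. Disease was scored on a rating scale that included intermediate grades.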

[5] = system: Erysiphe graminis; assay: Powdery mildew in barley, foliar application (ERY GRA); type: in vivo; conditions: foliar, 1,000 mg/l, 8 days after inoculation; for pest or weed control at 1000 µg/mL: Blumeria graminis, foliar, 192 h, read-out: Percent Reduction of Disease, ERY GRA
Summary of the method: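 'Robust' barley plants sprayed with acetone/TWEEN 20 aqueous emulsion at 1,000 mg/l, dried, then kept at 21° C in a greenhouse. Inoculated by distributing Erysiphe graminis spores from infected plants. Percent control computed from disease scores vs unsprayed control pots.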

[6] = system: Cercosporidium personatum; assay: Fungal germination and growth, treated disc on agar, scored (CER PER); type: cell-based; design: key: 100: Complete inhibition of germination and growth.; 80: Nearly complete inhibition but some growth.; 50: Partial inhibition of growth or, early complete inhibition but later growth begins.; 20: Some inhibition of growth, but not significant.; 0: No inhibition of growth; conditions: disc dipped in 500 mg/l, 29° C., numerical score 0-100, spore suspension
Summary of the method: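 Scoring ran from 100, complete inhibition of germination and growth, down to 0, none, after incubation at 29° C. Filter discs (11 mm) soaked in test solution and air-dried to remove acetone were set on agar and inoculated with spores (20,000 spores/ml, two drops each); untreated discs served as controls.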

[7] = system: Erysiphe cichoracearum; assay: Powdery mildew of cucumber, systemic root uptake (CMS); type: in vivo; conditions: 45 ml of 250 mg/l, 8 days after inoculation
Summary of the method: as §1

[8] = system: Fusarium oxysporum; assay: Fungal growth inhibition, treated disc on agar (FUS OXY); type: cell-based; conditions: disc dipped in 500 mg/l, 29° C.; for inhibition at 500 µg/mL: Fusarium oxysporum, read-out: Percent Growth Inhibition, FUS OXY
[9] = system: Scierotinia minor; assay: Fungal growth inhibition, treated disc on agar (SCL MIN); type: cell-based; conditions: disc dipped in 500 mg/l, 29° C.; for inhibition at 500 µg/mL: read-out: Percent Growth Inhibition, SCL MIN

Row | SMILES | Percent Growth Inhibition, BOT CIN [1] | Percent Growth Inhibition, RHI SOL [2] | pest or weed control at 1000 µg/mL [3] | Percent Reduction of Disease, BMS [4] | pest or weed control at 1000 µg/mL [5] | CER PER inhibition score [6] | Percent Reduction of Disease, CMS [7] | inhibition at 500 µg/mL [8] | Percent Growth Inhibition, SCL MIN [9] | inhibition at 500 µg/mL [1] | inhibition at 500 µg/mL [2] | inhibition at 500 µg/mL [9] | Percent Reduction of Disease, HEL SAT [3] | Percent Reduction of Disease, ERY GRA [5] | Percent Growth Inhibition, FUS OXY [8]
1 | CC(C)CCC(C#N)(CCc1ccc(F)cc1)c1cccnc1 (stereo not drawn) [Compound 49] | 100% | 100% | 100% | 0% | 100% | 0 | 0% | 65% | 100% | – | – | – | – | – | –
2 | COCC(C#N)(CCc1ccc(OC)cc1)c1cccnc1 (stereo not drawn) [Compound 50] | – | – | 100% | 0% | 80% | 0 | 0% | 100% | – | 0% | 20% | 100% | – | – | –
3 | COCC(C#N)(CCc1ccc(F)cc1)c1cccnc1 (stereo not drawn) [Compound 51] | – | – | 90% | 90% | 91% | 100 | 0% | 100% | – | 100% | 30% | 100% | – | – | –
4 | N#CC(CCc1ccc(F)cc1)(CC(F)(F)F)c1cccnc1 (stereo not drawn) [Compound 52] | – | – | 100% | 100% | 100% | 100 | 85% | 100% | – | 100% | 100% | 100% | – | – | –
5 | N#CC(CCF)(CCc1ccc(F)cc1)c1cccnc1 (stereo not drawn) [Compound 53] | – | – | 90% | 100% | 100% | 0 | 0% | 100% | – | 100% | 75% | 100% | – | – | –
6 | CCCCOc1ccc(CCC(C#N)(CCCC)c2cccnc2)cc1 (stereo not drawn) [Compound 54] | – | – | 100% | 0% | 100% | 0 | 0% | 100% | – | 100% | 100% | 100% | – | – | –
7 | CC(C)CCC(C#N)(CCc1ccc(F)cc1)c1cccnc1 (stereo not drawn) [Compound 55] | 40% | 50% | – | 75% | – | 0 | 0% | – | 55% | – | – | – | 90% | 100% | 65%
8 | C=CCC(C#N)(CCc1ccc(OCCCC)cc1)c1cccnc1 (stereo not drawn) [Compound 56] | – | – | 100% | 0% | 90% | 0 | 0% | 60% | – | 100% | 45% | 45% | – | – | –
9 | CCCCOc1ccc(CCC(C#N)(CCC)c2cccnc2)cc1 (stereo not drawn) [Compound 57] | – | – | 100% | 0% | 90% | 0 | 0% | 55% | – | 30% | 40% | 65% | – | – | –
10 | CCCCOc1ccc(CCC(C#N)(CC(C)C)c2cccnc2)cc1 (stereo not drawn) [Compound 58] | – | – | 0% | 0% | 90% | 0 | 0% | 40% | – | 10% | 5% | 75% | – | – | –
11 | CC=CCC(C#N)(CCc1ccc(F)cc1)c1cccnc1 (stereo not drawn) [Compound 59] | – | – | 90% | 75% | 100% | 0 | 0% | 100% | – | 100% | 5% | 70% | – | – | –
12 | CCCCCC(C#N)(CCc1ccc(F)cc1)c1cccnc1 (stereo not drawn) [Compound 60] | – | – | 90% | 75% | 100% | 0 | 0% | 20% | – | 100% | 100% | 100% | – | – | –
13 | C#CCC(CCc1ccccc1)(C(N)=S)c1cccnc1 (stereo not drawn) [Compound 61, α-(2-phenylethyl)-α-(2-propynyl)-3-pyridinethanethioamide] | – | – | 85% | 20% | 100% | 100 | 40% | 100% | – | 100% | 80% | 100% | – | – | –
14 | CCCCCC(CCc1ccc(F)cc1)(C(N)=O)c1cccnc1 (stereo not drawn) [Compound 62] | – | – | 0% | 20% | 0% | 0 | 20% | 10% | – | 0% | 5% | 100% | – | – | –
15 | CCCCC(C#N)(CCCc1ccccc1OC)c1cccnc1 (stereo not drawn) [Compound 63] | – | – | 0% | 0% | 0% | 0 | 0% | 20% | – | 40% | 5% | 100% | – | – | –
16 | N#CC(CCCF)(CCc1ccc(F)cc1)c1cccnc1 (stereo not drawn) [Compound 64] | – | – | 85% | 20% | 0% | 0 | 0% | 100% | – | 100% | 20% | 50% | – | – | –
17 | C=C(Cl)CC(C#N)(CCc1ccc(F)cc1)c1cccnc1 (stereo not drawn) [Compound 65] | – | – | 100% | 0% | 85% | 0 | 0% | 100% | – | 100% | 30% | 100% | – | – | –
18 | N#CC(CCCF)(CCc1ccccc1F)c1cccnc1 (stereo not drawn) [Compound 66] | – | – | 100% | 100% | 50% | 0 | 40% | 100% | – | 100% | 45% | 100% | – | – | –
19 | C=CCC(C#N)(CCc1ccccc1F)c1cccnc1 (stereo not drawn) [Compound 67] | – | – | 100% | 100% | 100% | 100 | 20% | 100% | – | 100% | 40% | 100% | – | – | –
20 | CCCCC(C#N)(CCc1ccc(OCCF)cc1)c1cccnc1 (stereo not drawn) [Compound 68] | – | – | 100% | 0% | 75% | 100 | 0% | 100% | – | 100% | 45% | 100% | – | – | –

— patent publication US5945436A, “Pyridylmethyl nitriles, amides and thioamides useful as fungicides” (Uniroyal Chemical Company, Inc., priority 1997, dated 1999)
